Values after ≈ are worked out from the molar mass of the structure shown. Read-outs that look alike come from different tables or passages of the source.

We go through five compounds from article PMC10638401, “Mannich-type modifications of (−)-cannabidiol and (−)-cannabigerol leading to new, bioactive derivatives” (Scientific Reports, 2023).

Data set [1] relates to Vero E6 cells. The note with it: uninfected Vero E6 cells, three days, XTT.
The subject of data set [2] is Staphylococcus epidermidis biofilm forming. Description: MIC, broth micro dilution.
In data set [3] the test system is SARS-CoV-2. Briefly: SARS-CoV-2 immunofluorescence assay (nucleoprotein expression) in Vero E6 cells. It counts as cell-based. To be noted: three days. As for the experimental part: (§1) CBD and CBG derivatives were further tested for their ability to inhibit SARS-CoV-2 replication in Vero E6 cells. Initially, the inhibition of virus-induced cytopathic effect was measured by addition of twofold serial dilutions of each derivative to the cells, followed by the infection with SARS-CoV-2 and determination of the cell viability 3 days post-infection by XTT assay. Concurrently, the cytotoxicity of each compound was assessed from identical dilutions in uninfected Vero E6 cells. To confirm anti-SARS-CoV-2 activity in the CPE inhibition assay, selected compounds were tested in immunofluorescence assay, where inhibition of SARS-CoV-2 replication was monitored as reduction in nucleoprotein expression using fluorescence microscope. […] Among the CBG derivatives, we can find quite cytotoxic and non-cytotoxic derivatives as well.
(§2) For CPE-based assay, two-fold fold serial dilutions of compounds from 100 µM were added in triplicate in a 384-well plate with 5000 Vero E6 cells in DMEM medium with 2% FBS, 100 U of penicillin/ml and 100 µg of streptomycin/ml (all Merck). After 1 h incubation SARS-CoV-2 (strain hCoV-19/Czech Republic/NRL_6632_2/2020) was added at multiplicity of infection […]. Following three days incubation at 37 °C in 5% CO2 the cell viability was determined by addition of XTT solution (Sigma-Aldrich) for 4 h and the absorbance was measured using EnVision plate reader (Perkin Elmer). Drug concentrations required to reduce viral cytopathic effect by 50% (EC50) were calculated using nonlinear regression from plots of percentage cell viability versus log10 drug concentration using GraphPad Prism (version 9.0.0, GraphPad Software, LLC). For immunofluorescence assay, two-fold fold serial dilutions of compounds from 100 µM were added in triplicate in 96-well plate with 15,000 Vero E6 cells plated day before in the same medium as above. After 1 h incubation, SARS-CoV-2 was added at multiplicity of infection 0.05 IU/cell. After three days of incubation, cells were fixed with 4% paraformaldehyde, permeabilized with 0.2% Triton X100 (both Merck), washed, incubated with anti-SARS-CoV-2antibody (mouse monoclonal antibody detecting SARS-CoV-2 nucleoprotein) for 2 h at room temperature. Followed by 1.5 h incubation with Cy3-labeled donkey anti-mouse IgG (Jackson ImmunoResearch Europe) and documented using fluorescence microscope with camera (Olympus). Images were processed in ImageJ software (NIH) and compound concentrations required to reduce fluorescence by 50% (EC50s) were calculated from plots of percentage of fluorescent cells versus log10 drug concentration using nonlinear regression analysis as above. Cytotoxicity was evaluated by incubating with the same two-fold serial dilutions of each compound as above with Vero E6 cells in 384-well plate.

In data set [4] the test system is MSSA (Methicillin Sensitive Staphylococcus aureus). Briefly: MIC, broth micro dilution.
Method: (§6) According to CLSI guideline the Minimal Inhibitory Concentrations (MICs) of the prepared compounds were determined with the broth micro dilution method. After an overnight growth on 5% bovine blood agar plates at 35 °C bacterial strains were suspended in physiological saline in order to reach the density of 0.5 McFarland for inoculation. Stock solutions containing different concentrations of the substances were prepared in DMSO and H2O (1:1). These were twofold serially diluted from 256 to 0.5 mg/l in Mueller–Hinton broth, and 100 ml of each dilution was inoculated with 10 ml of each bacterial suspension.
The test system of data set [5] is SARS-CoV-2. Description: SARS-CoV-2 cytopathic effect (CPE) inhibition assay in Vero E6 cells (XTT). The data set is classed as cell-based. To be noted: for EC50: Vero E6 cells, 3 days post-infection, XTT. As for the experimental part:
as §1, §2

Data set [6] has as its system MRSA (Methicillin Resistant Staphylococcus aureus). Briefly: MIC, broth micro dilution.
Data set [7] concerns MCF7 cells. Briefly: Antiproliferative MTT assay, 72 h. The data set is classed as cell-based, human. To be noted: MCF7, 10 and 30 μM. The text has this:
(§3) Human adherent cancer cell lines A2780, MDA-MB-231 and MCF-7 were obtained from ECACC (European Collection of Cell Cultures, Salisbury, UK; Cat. No.93112519, 92020424, 86012803, respectively). SiHa cell line was obtained from ATCC (American Tissue Culture Collection, Manassas, Virginia, USA; Cat. No. HTB-35). All cell lines used for antiproliferative assay were maintained in Eagle's Minimum Essential Medium (EMEM) completed with 10% fetal bovine serum (FBS), 1% non-essential amino acid solution, and 1% penicillin, streptomycin, and amphotericin B mixture under cell culture conditions described before. All the utilized media and supplements were purchased from Lonza Group Ltd. (Basel, Switzerland).
(§4) The antiproliferative actions of the prepared molecules were determined by the same assay against a panel of adherent human cancer cell lines containing cervical (SiHa), ovarian (A2780) and breast (MCF7, MDA-MB-231) cell lines. Cells were plated onto 96-well microplates (5000 cells/well) and after an overnight incubation treated with two concentrations (10 or 30 μM) of the test substances for 72 h under cell culture conditions. Subsequently, MTT (5 mg/ml in phosphate buffer) was added to the wells, followed by incubation for 4 h. The supernatant was removed, the formazan crystals were then dissolved in 100 µl DMSO. Finally, absorbance values were determined by a microplate reader (BMG Labtech, Ortenberg, Germany) at 545 nm. Two independent measurements were performed with five parallel wells. Results were expressed as percentage of cell proliferation inhibition compared to non-treated control samples regarded as 0%.

Data set [8] deals with MDA-MB-231 cells. Description: Antiproliferative MTT assay, 72 h. To be noted: MDA-MB-231, 10 and 30 μM. It counts as cell-based, human.
Text: as §3, §4

The subject of data set [9] is A2780 cells. Briefly: Antiproliferative MTT assay, 72 h. It counts as cell-based, human. To be noted: A2780, 10 and 30 μM.
Text: as §3, §4

Data set [10] deals with SiHa cells. Description: Antiproliferative MTT assay, 72 h. To be noted: 10 and 30 μM. It counts as cell-based, human.
Text: as §3, §4

The test system of data set [11] is Enterococcus faecalis 51299 VanB. Briefly: MIC, broth micro dilution.
The subject of data set [12] is Staphylococcus epidermidis mecA. Description: MIC, broth micro dilution.
Data set [13] has as its system Bacillus subtilis. Description: MIC, broth micro dilution.
Data set [14] has as its system Enterococcus faecalis 29 212. Description: MIC, broth micro dilution.
Data set [15] concerns Enterococcus faecalis 15 376 VanA. Briefly: MIC, broth micro dilution.
Method: as §6
The test system of data set [16] is SZ95 sebocytes. Description: Nile Red-assay, arachidonic acid-induced lipogenesis. It counts as cell-based, human. To be noted: 50 μM arachidonic acid, 48 h. On the procedure: (§5) Human immortalized SZ95 sebocytes, originated from human facial sebaceous glands[50] were provided by prof. Christos C. Zouboulis, and were cultured in Sebomed® Basal Medium (Cat. No. F8205; Sigma-Aldrich) supplemented with 10% FBS (Gibco-Thermo Fisher Scientific), 1 mM CaCl2 (Cat. No. C7902; Sigma-Aldrich), 5 ng/ml human epidermal growth factor (Cat. No. E9644; Sigma-Aldrich), and MycoZap™ Plus-CL (1:500; Lonza). The medium was changed every other day, and cells were subcultured at 60–70% confluence.
For quantitative measurement of sebaceous (neutral) lipid content, SZ95 sebocytes (20,000 cells/well) were cultured in 96-well “black well/clear bottom” plates (Cat. No. 655090; Greiner Bio-One, Frickenhausen, Germany), and were treated with compounds in the presence or absence of arachidonic acid (AA; Cat. No. 90010; Cayman Chemical Company, Ann Arbor, MI, USA) or its vehicle (absolute ethanol) as indicated. Subsequently, supernatants were discarded, cells were washed twice with phosphate-buffered saline (PBS; 115 mM NaCl, 20 mM Na2HPO4, pH 7.4; all from Sigma-Aldrich), and 100 µl of a 1 µg/ml Nile Red (Cat. No. N3013; Sigma-Aldrich) solution in PBS was added to each well. The plates were then incubated at 37 °C for 30 min, and fluorescence was measured on FlexStation 3 multimode microplate reader (Molecular Devices, San Francisco, CA, USA). Results, measured in relative fluorescence units, are expressed as percentage of the vehicle (absolute ethanol; Cat. No. 20821.296; VWR International)-treated control regarded as 100%, using 485 nm excitation and 565 nm emission wavelengths.

Data set [17] relates to SZ95 sebocytes. Description: Nile Red-assay, spontaneous sebaceous lipogenesis. It counts as cell-based, human. To be noted: applied alone, 48 h.
Data set [18] concerns SZ95 sebocytes. Description: Viability MTT-assay on sebocytes, 48 h. The data set is classed as cell-based, human. The note with it: 30 μM. On the procedure:
as §5
The viability of HaCaT keratinocytes and SZ95 sebocytes was determined by MTT-assay[58] (Cat. No. M5655; Sigma-Aldrich) measuring the conversion of the tetrazolium salt to formazan by mitochondrial dehydrogenases. Cells were plated in 96-well plates (20,000 cells/well), and were treated as indicated. Cells were then incubated with 0.5 mg/ml MTT reagent for 3 h, and concentration of formazan crystals (as an indicator of number of viable cells) was determined colorimetrically at 565 nm by using FlexStation 3 multi-mode microplate reader (Molecular Devices). Results were expressed as percentage of vehicle-treated control regarded as 100%.

Data set [19] in a line: in vitro. To be noted: African green monkey.
The mark [20] stands for this setting: Staphylococcus epidermidis biofilm forming.
Setting [21] is: Enterococcus faecalis 51299 VanB.
[22] abbreviates: Staphylococcus epidermidis mecA.
The mark [23] stands for this setting: Enterococcus faecalis 15 376 VanA.
[24] abbreviates: Severe acute respiratory syndrome coronavirus 2, Vero C1008, 72 h.

`C#CCN1COc2c(c(CCCCC)cc(O)c2[C@@H]2C=C(C)CC[C@H]2C(=C)C)C1` [Compound 11] had a CC50 in [1] of 77 ± 2.6 µM. Also, the MIC in data set [2] (setting [20]) was greater than 256 µg/mL; in data set [4], greater than 256 µg/mL; in [6], greater than 256 µg/mL; in data set [11] (setting [21]) it was 128 µg/mL (≈ 325 µM); in data set [12] (setting [22]), greater than 256 µg/mL; in data set [13], greater than 256 µg/mL. Moreover, the results for the MIC in data set [14] (Enterococcus faecalis 29 212) and in data set [15] (setting [23]) were 128 µg/mL (≈ 325 µM) and greater than 256 µg/mL, respectively. The EC50 in [3] was found to be 33 ± 1.4 µM; in data set [5] it was 17 ± 1.5 µM. In addition, the “antiproliferative activity (in words)” value in data set [7] is “None of the other tested CBD analogs (9, 11, and 12) exhibited substantial antiproliferative activity”; in data set [8], “None of the other tested CBD analogs (9, 11, and 12) exhibited substantial antiproliferative activity”; in data set [9], “None of the other tested CBD analogs (9, 11, and 12) exhibited substantial antiproliferative activity”; in [10], “None of the other tested CBD analogs (9, 11, and 12) exhibited substantial antiproliferative activity”.
As for `CCCCCc1cc(O)c(C/C=C(\C)CCC=C(C)C)c2c1CN(CCCC)CO2` [Compound 16a], in data set [16], the “effect on the lipogenic effect of arachidonic acid (AA)” value is on record as “suppress the effect of AA”. For the same compound, the “spontaneous, homeostatic sebaceous lipogenesis” value in data set [17] is given as “mimicked the previously reported weak lipogenic effect of CBG”. The “viability (MTT signal intensity)” value in data set [18] is on record as “tended to suppress viability”.
Compound `CCCCCc1c2c(c(C/C=C(\C)CCC=C(C)C)c3c1CN(CCCC)CO3)OCN(CCCC)C2` [Compound 16b] displayed a CC50 in [1] of 7.7 ± 3.2 µM. The MIC in data set [2] (setting [20]) was greater than 256 µg/mL; in data set [4], greater than 256 µg/mL; in [6] it was greater than 256 µg/mL; in data set [11] (setting [21]), 64 µg/mL (≈ 125 µM); in data set [12] (setting [22]), greater than 256 µg/mL; in data set [13] it was greater than 256 µg/mL. Also, the MIC is 64 µg/mL (≈ 125 µM) in data set [14] (Enterococcus faecalis 29 212) and greater than 256 µg/mL in data set [15] (setting [23]). The compound also returned an EC50 in data set [5] greater than 7.7 µM. The “antiproliferative activity (in words)” value in data set [7], in data set [8], in data set [9] and in [10] was “more active than CBG” in each case.
In data set [1], `C#CCN1COc2c(C/C=C(\C)CCC=C(C)C)c(O)cc(CCCCC)c2C1` [Compound 18] showed a CC50 of roughly 28 µM. Moreover, the MIC is greater than 256 µg/mL in [2] (setting [20]); greater than 256 µg/mL in data set [4]; greater than 256 µg/mL in data set [6]; 64 µg/mL (≈ 162 µM) in data set [11] (setting [21]); greater than 256 µg/mL in [12] (setting [22]); greater than 256 µg/mL in data set [13]. The MIC in data set [14] (Enterococcus faecalis 29 212) is 64 µg/mL (≈ 162 µM); in data set [15] (setting [23]) it was greater than 256 µg/mL. Besides, the values for the EC50 in [3] and in data set [5] were greater than 28 µM and 15 ± 0.94 µM, respectively.
Take `CCCCCc1c(CN(CC)CC)c(O)c(C/C=C(\C)CCC=C(C)C)c(O)c1CN(CC)CC` [Compound 21b]: the MIC is greater than 256 µg/mL in data set [2] (Staphylococcus epidermidis); greater than 256 µg/mL in [4] (Staphylococcus aureus); greater than 256 µg/mL in [6] (Staphylococcus aureus); 64 µg/mL (≈ 131 µM) in data set [11] (Enterococcus faecalis, 51299VANB); greater than 256 µg/mL in data set [12] (Staphylococcus epidermidis); greater than 256 µg/mL in [13]. Moreover, the MIC was 64 µg/mL (≈ 131 µM) in data set [14] (Enterococcus faecalis, 29212) and greater than 256 µg/mL in data set [15] (Enterococcus faecalis, 15376VANA). For the same compound, the concentration for a half-maximal effect (EC50) in [3] (setting [24]) is greater than 100 µM; in [5] (setting [24]) it was 12 ± 0.99 µM. Besides, the half-inhibitory concentration (IC50) in [5] (Severe acute respiratory syndrome coronavirus 2, Vero C1008, read-out: IC50 (anti-SARS-CoV-2 activity, Figure 8)) is 12 µM. Besides, the “effect on the lipogenic effect of arachidonic acid (AA)” value in [16] is listed as “suppress the effect of AA”. In addition, in [17], the “spontaneous, homeostatic sebaceous lipogenesis” value is listed as “mimicked the previously reported weak lipogenic effect of CBG”. For the same compound, in data set [18], the “viability (MTT signal intensity)” value is on record as “rather increased MTT signal intensity”. Moreover, the CC50 in data set [19] was greater than 100 µM.
